# Experimental data: patent US9604996B2 (Bayer Pharma Aktiengesellschaft, priority 2013, dated 2017)
# Tests used:
# [1] = test system: IL-6 release by human fibroblast cell line LL29; assay: NECA-induced IL-6 release by LL29 fibroblasts (ELISA); type: cell-based; conditions: NECA 10 μM, 24 hours incubation, IL-6 ELISA of supernatant, in some cases means, rounded to two significant digits
# Protocol: B-2. Measurement of NECA-Induced IL-6 Release by LL29 Fibroblasts
# Stimulation of fibroblasts with adenosine or the adenosine analog 5′-N-ethylcarboxamidoadenosine (NECA) leads to release of the pro-inflammatory and pro-fibrotic cytokine IL-6 which can be prevented by inhibition of the A2b receptor.
# Accordingly, confluent cells of the human fibroblast cell line LL29 were treated with the test substances and stimulated with NECA (10 μM). After an incubation time of 24 hours, the cell supernatant is removed and human IL-6 in the cell supernatant is determined by ELISA (Quantikine® IL6 ELISA, R&D Systems, Minneapolis, USA).
# [2] = target: T1, human adenosine A2b receptor (Homo sapiens, UniProt P29275); assay: Cellular reporter gene (CRE-luciferase) A2b receptor antagonist assay in recombinant CHO-K1 cells stimulated with NECA; type: cell-based; conditions: recombinant CHO-K1 cell line, co-incubation with EC50 concentration of NECA, 3 hours, in some cases means, rounded to two significant digits
# T1 construct: expressed in transfected cells; host or cells: CHO-K1 (Chinese Hamster Ovary) with CRE-luciferase reporter
# T1 sequence (P29275 1-332): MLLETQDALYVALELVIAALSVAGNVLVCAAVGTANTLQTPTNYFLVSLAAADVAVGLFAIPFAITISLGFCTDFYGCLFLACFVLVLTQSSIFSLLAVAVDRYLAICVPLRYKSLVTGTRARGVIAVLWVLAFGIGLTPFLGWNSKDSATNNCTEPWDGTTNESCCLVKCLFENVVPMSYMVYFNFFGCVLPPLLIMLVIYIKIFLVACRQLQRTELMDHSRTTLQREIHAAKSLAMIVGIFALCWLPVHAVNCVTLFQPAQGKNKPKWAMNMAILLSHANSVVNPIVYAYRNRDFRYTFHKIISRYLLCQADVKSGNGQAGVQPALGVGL
# Summary of the method: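 CHO-K1 cells expressing human A2b receptor with a CRE-driven firefly luciferase reporter, co-incubated with test compound and NECA at its same-day EC50 concentration. Luminescence read 3 hours after NECA addition.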
smiles,measurement,setting,value
"Cc1c(C(=O)N2CCNC(=O)C2)sc2c1c(=O)n(CCc1ccccc1F)c(=O)n2CCC(F)(F)F [Example 29, 3-[2-(2-Fluorophenyl)ethyl]-5-methyl-6-[(3-oxopiperazin-1-yl)carbonyl]-1-(3,3,3-trifluoropropyl)thieno[2,3-d]pyrimidine-2,4(1H,3H)-dione]",IC50,[1],23 nM
same,IC50,[2],21 nM
